# Measured values published in publication PMC10461462, “A critical inter‐subunit interaction for the transmission of the allosteric signal in the Agrobacterium tumefaciens ADP‐glucose pyrophosphorylase” (Protein Science : A Publication of the Protein Society, 2023).
# Like-named read-outs stand apart in the source and are kept apart here.
# T1: WT (Agrobacterium tumefaciens, UniProt P39669)
# T1 construct: gene glgC; His-tagged, from pBLH1/pBHL1 (pET28c derivative), expressed in E. coli BL21(DE3); homotetramer
# T1 sequence (P39669 1-420): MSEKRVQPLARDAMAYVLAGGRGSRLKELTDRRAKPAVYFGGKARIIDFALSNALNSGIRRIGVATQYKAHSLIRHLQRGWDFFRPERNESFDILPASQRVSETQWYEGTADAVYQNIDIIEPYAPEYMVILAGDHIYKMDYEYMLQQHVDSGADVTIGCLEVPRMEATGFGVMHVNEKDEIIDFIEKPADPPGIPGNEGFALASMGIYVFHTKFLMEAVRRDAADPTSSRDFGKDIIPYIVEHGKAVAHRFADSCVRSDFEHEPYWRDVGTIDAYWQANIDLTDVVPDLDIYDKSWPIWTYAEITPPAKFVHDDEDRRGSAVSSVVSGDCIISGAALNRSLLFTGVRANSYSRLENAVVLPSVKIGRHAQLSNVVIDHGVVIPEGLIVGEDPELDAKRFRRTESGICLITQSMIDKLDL
# B1: Agrobacterium tumefaciens ADP-glucose pyrophosphorylase wild type (enzyme)
# chain: T1 sequence (P39669 1-420)
# notes: ADP-glucose pyrophosphorylase (EC 2.7.7.27) of Agrobacterium tumefaciens, ~50 kDa subunit, encoded by plasmid pBHL1 (pET28c derivative) of Hill et al., 2019; also called ADP-Glc PPase; WT; source: E. coli BL21 (DE3), purified (His-Trap FF Ni2+ column, Superdex 200 gel filtration)
# Legend:
# [1] = system: T2, R11A; test: Activator saturation of ADP-Glc synthesis (PPi converted to phosphate, Malachite Green) in 50 mM HEPES pH 7.5, 7 mM MgCl2, 1.5 mM Glc1P, 1.5 mM ATP; modified Hill fit.; assay type: biochemical; set-up: method as in values quoted from other papers; conditions: n = 2; read-out: A0.5; cited from earlier work
# T2 construct: values from literature (Gomez-Casati et al., 2001)
# Experimental: (§1) This condition was considered “saturating concentrations” of substrate. To analyze the effect of the activators in “sub‐saturating concentrations” of substrate, the concentration of ATP was 0.2 mM.
# (§2) Table S1 . Kinetic parameters for the activators of the A. tumefaciens ADP -Glc PPase wild type, and mutants.
# (§3) a Assays were performed as described in Materials and Methods under “activator saturation assay”.
# (§4) b Activation fold is calculated by dividing the maximum velocity (Vm) by the velocity in the absence of activator (V0).
# [2] = molecular target: T3, D141A (Agrobacterium tumefaciens, UniProt P39669, D141A); test: Activator saturation of ADP-Glc synthesis (Malachite Green) at pH 7.5 with 1.5 mM Glc1P and 4 mM ATP; modified Hill fit.; assay type: biochemical; conditions: n = 2; read-out: A0.5
# T3 construct: gene glgC; His-tagged, from pBLH1/pBHL1 derivative, expressed in E. coli BL21(DE3); homotetramer
# Experimental: as §1
# (§5) The assays were performed as described in Materials and Methods in the presence of 4 mM ATP.
# (§6) (1 picture or pasted object on this page, not shown here)
# [3] = molecular target: T1, WT; test: Thermal shift assay (SYPRO Orange) with varied ligand concentration in 50 mM HEPES pH 8.0, 0.02 mg/mL protein, 25-95 C; Tm versus log ligand concentration fitted to obtain Kd.; assay type: binding; conditions: n = 3
# Experimental: (§7) We used thermal shift assays to find whether the effect of the mutation was on the ability of Fru6P/Pyr either to bind or activate the enzyme. Activators of ADP‐Glc PPase bind to the enzyme and stabilize it from thermal denaturation (Bhayani & Ballicora, [2022]).
# (§8) Thermal shift assays were performed as described (Hill et al., [2019]) using the QuantStudio™ 3 Real‐Time PCR System (Thermo Fisher Scientific) and QuantStudio™ Design and Analysis Software v1.5.1. The final volume for the assay was 20 μL and contained 50 mM HEPES (pH 8.0), SYPRO Orange Dye (Sigma‐Aldrich) (4×) and 0.02 mg/mL purified protein, in the absence or presence of 5 mM Fru6P, and 5 mM Pyr. A control with no protein was also performed for all the samples. A continuous temperature increases from 25.0 to 95.0°C was scanned at a ramp increment of 0.1°C per second. Scans were run in triplicates and averaged. The unfolding temperatures (T m ) of the proteins were measured using the minimum of the third derivative of the scanned fluorescence vs. temperature (d^3F/dT^3) (Bhayani & Ballicora, [2022]).
# (§9) Thermal Shift assays were used to study the relationship between the melting temperature ( Tm ) of a protein and the logarithm of the ligand concentration using the following equation (Bhayani & Ballicora, [2022]). y=Tm0+Alog101+10^x/Kd.
# (§10) In this equation, y is Tm , and x is the logarithm of the ligand concentration. […] The data was fitted to an equation using Origin™ 2017 and the Levenberg–Marquardt algorithm, to find the optimum parameters Tm0 , A , and Kd (Bhayani & Ballicora, [2022]). To ensure robustness and reliability, all thermal shift assays were conducted in triplicate.
# [4] = molecular target: T4, R11D (Agrobacterium tumefaciens, UniProt P39669, R11D); test: as above; assay type: binding; conditions: n = 3
# T4 construct: gene glgC; His-tagged, from pBLH1/pBHL1 derivative, expressed in E. coli BL21(DE3); homotetramer
# Experimental: as §7, §8, §9, §10
# [5] = molecular target: T5, R11K (Agrobacterium tumefaciens, UniProt P39669, R11K); test: Activator saturation of ADP-Glc synthesis (PPi converted to phosphate, Malachite Green) in 50 mM HEPES pH 7.5, 7 mM MgCl2, 1.5 mM Glc1P, 1.5 mM ATP; modified Hill fit.; assay type: biochemical; conditions: n = 2
# T5 construct: gene glgC; His-tagged, from pBLH1/pBHL1 derivative, expressed in E. coli BL21(DE3); homotetramer
# Experimental: as §1, §2, §3, §4
# [6] = molecular target: T3, D141A; test: as above; assay type: biochemical; conditions: n = 2; read-out: A0.5
# Experimental: as §1, §2, §3, §4
# [7] = molecular target: T6, R11D/D141R (Agrobacterium tumefaciens, UniProt P39669, D141R/R11D); test: as above; assay type: biochemical; conditions: n = 2; read-out: A0.5
# T6 construct: gene glgC; His-tagged, from pBLH1/pBHL1 derivative, expressed in E. coli BL21(DE3); homotetramer
# Experimental: as §1, §2, §3, §4
# [8] = molecular target: T1, WT; test: as above; assay type: biochemical; conditions: n = 2; read-out: A0.5
# Experimental: as §1, §2, §3, §4
# [9] = molecular target: T7, D141N (Agrobacterium tumefaciens, UniProt P39669, D141N); test: as above; assay type: biochemical; conditions: n = 2; read-out: A0.5
# T7 construct: gene glgC; His-tagged, from pBLH1/pBHL1 derivative, expressed in E. coli BL21(DE3); homotetramer
# Experimental: as §1, §2, §3, §4
# [10] = molecular target: T8, D141E (Agrobacterium tumefaciens, UniProt P39669, D141E); test: as above; assay type: biochemical; conditions: n = 2
# T8 construct: gene glgC; His-tagged, from pBLH1/pBHL1 derivative, expressed in E. coli BL21(DE3); homotetramer
# Experimental: as §1, §2, §3, §4
# [11] = molecular target: T7, D141N; test: Effector saturation of ADP-Glc synthesis (Malachite Green) at pH 7.5 with 1.5 mM Glc1P and 4 mM ATP, effector inhibiting instead of activating; modified Hill fit.; assay type: biochemical; conditions: n = 2; read-out: A0.5 (mM), footnote: I0.5
# Experimental: as §1, §5, §6
# [12] = molecular target: Agrobacterium tumefaciens ADP-glucose pyrophosphorylase double mutant R11D/D141R (Agrobacterium tumefaciens) (UniProt P39669); test: SEC
# [13] = molecular target: Agrobacterium tumefaciens ADP-glucose pyrophosphorylase mutant D141A (Agrobacterium tumefaciens) (UniProt P39669); test: SEC
# [14] = molecular target: Agrobacterium tumefaciens ADP-glucose pyrophosphorylase mutant D141E (Agrobacterium tumefaciens) (UniProt P39669); test: SEC
# [15] = molecular target: Agrobacterium tumefaciens ADP-glucose pyrophosphorylase mutant D141N (Agrobacterium tumefaciens) (UniProt P39669); test: SEC
# [16] = molecular target: Agrobacterium tumefaciens ADP-glucose pyrophosphorylase mutant D141R (Agrobacterium tumefaciens) (UniProt P39669); test: SEC
# [17] = molecular target: Agrobacterium tumefaciens ADP-glucose pyrophosphorylase mutant R11D (Agrobacterium tumefaciens) (UniProt P39669); test: SEC
# [18] = molecular target: Agrobacterium tumefaciens ADP-glucose pyrophosphorylase mutant R11K (Agrobacterium tumefaciens) (UniProt P39669); test: SEC
# [19] = molecular target: the molecule itself; test: SEC
molecule,measurement,setting,value
"O=P(O)(O)OC[C@H]1OC(O)(CO)[C@@H](O)[C@@H]1O (some centres unmarked) [Fru6P, fructose 6-phosphate]",EC50,[1],30 µM
same,EC50,[2],500 µM
same,Kd,[3],1510 µM
same,Kd,[4],1820 µM
same,EC50,[5],50 µM
same,EC50,[6],840 µM
same,EC50,[7],1320 µM
same,EC50,[8],340 µM
same,EC50,[9],2970 µM
same,EC50,[10]; read-out: A0.5,30 µM
"CC(=O)C(=O)O [Pyr, pyruvate]",EC50,[2],49 µM
same,Kd,[3],233 µM
same,Kd,[4],54 µM
same,EC50,[5],40 µM
same,EC50,[6],300 µM
same,EC50,[8],450 µM
same,EC50,[10],60 µM
same,IC50,[11],0.075 mM
Agrobacterium tumefaciens ADP-glucose pyrophosphorylase double mutant R11D/D141R (from UniProt P39669) (enzyme),stoichiometry N,[12],4
Agrobacterium tumefaciens ADP-glucose pyrophosphorylase mutant D141A (from UniProt P39669) (enzyme),stoichiometry N,[13],4
Agrobacterium tumefaciens ADP-glucose pyrophosphorylase mutant D141E (from UniProt P39669) (enzyme),stoichiometry N,[14],4
Agrobacterium tumefaciens ADP-glucose pyrophosphorylase mutant D141N (from UniProt P39669) (enzyme),stoichiometry N,[15],4
Agrobacterium tumefaciens ADP-glucose pyrophosphorylase mutant D141R (from UniProt P39669) (enzyme),stoichiometry N,[16],2
Agrobacterium tumefaciens ADP-glucose pyrophosphorylase mutant R11D (from UniProt P39669) (enzyme),stoichiometry N,[17],4
Agrobacterium tumefaciens ADP-glucose pyrophosphorylase mutant R11K (from UniProt P39669) (enzyme),stoichiometry N,[18],4
B1,stoichiometry N,[19],4
